Columns and labels:
FLT3 = target: T1, FLT3 (Homo sapiens, UniProt P36888); assay: TR-FRET kinase activity assay, FLT3; type: biochemical; conditions: ATP at Km, 60 minutes
T1 sequence (P36888 27-993): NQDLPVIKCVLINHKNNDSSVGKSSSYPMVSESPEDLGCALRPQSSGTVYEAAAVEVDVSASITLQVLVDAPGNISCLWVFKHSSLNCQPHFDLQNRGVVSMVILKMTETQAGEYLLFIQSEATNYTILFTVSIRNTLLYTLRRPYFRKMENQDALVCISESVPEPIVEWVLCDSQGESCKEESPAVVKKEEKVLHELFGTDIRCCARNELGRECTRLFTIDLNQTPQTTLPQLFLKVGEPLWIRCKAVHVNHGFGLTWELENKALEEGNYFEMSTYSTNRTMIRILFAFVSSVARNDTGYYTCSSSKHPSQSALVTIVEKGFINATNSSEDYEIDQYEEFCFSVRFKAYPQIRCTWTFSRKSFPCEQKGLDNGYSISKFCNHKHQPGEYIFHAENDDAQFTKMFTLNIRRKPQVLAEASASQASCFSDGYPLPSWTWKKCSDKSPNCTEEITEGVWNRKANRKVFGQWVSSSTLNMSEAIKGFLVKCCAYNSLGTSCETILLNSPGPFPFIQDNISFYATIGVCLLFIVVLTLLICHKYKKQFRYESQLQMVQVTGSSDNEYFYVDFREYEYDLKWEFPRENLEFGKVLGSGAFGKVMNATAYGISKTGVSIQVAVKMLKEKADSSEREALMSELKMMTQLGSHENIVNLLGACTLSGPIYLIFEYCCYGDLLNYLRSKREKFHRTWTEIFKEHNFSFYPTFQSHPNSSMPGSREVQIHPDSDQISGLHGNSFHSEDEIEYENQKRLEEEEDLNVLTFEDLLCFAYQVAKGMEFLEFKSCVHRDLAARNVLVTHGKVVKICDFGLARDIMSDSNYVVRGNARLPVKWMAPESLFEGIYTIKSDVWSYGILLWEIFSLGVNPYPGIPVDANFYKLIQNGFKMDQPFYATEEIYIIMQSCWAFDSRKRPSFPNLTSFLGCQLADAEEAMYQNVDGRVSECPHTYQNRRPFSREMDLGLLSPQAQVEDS
How it was run: (§1)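 Compounds were tested against each kinase with ATP set at its own Km and a labelled tyrosine peptide substrate. Following one hour at room temperature in buffer containing 10 mM MgCl2 and 1 mM DTT, phosphorylated product was detected by Europium antibody TR-FRET after EDTA quench, and IC50 values were calculated.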

MERTK = target: T2, MERTK (Homo sapiens, UniProt Q12866); assay: TR-FRET kinase activity assay, MERTK; type: biochemical; conditions: for IC50: TR-FRET activity assay, ATP at Km, 60 minutes, read-out: Mer IC50
T2 sequence (Q12866 21-999): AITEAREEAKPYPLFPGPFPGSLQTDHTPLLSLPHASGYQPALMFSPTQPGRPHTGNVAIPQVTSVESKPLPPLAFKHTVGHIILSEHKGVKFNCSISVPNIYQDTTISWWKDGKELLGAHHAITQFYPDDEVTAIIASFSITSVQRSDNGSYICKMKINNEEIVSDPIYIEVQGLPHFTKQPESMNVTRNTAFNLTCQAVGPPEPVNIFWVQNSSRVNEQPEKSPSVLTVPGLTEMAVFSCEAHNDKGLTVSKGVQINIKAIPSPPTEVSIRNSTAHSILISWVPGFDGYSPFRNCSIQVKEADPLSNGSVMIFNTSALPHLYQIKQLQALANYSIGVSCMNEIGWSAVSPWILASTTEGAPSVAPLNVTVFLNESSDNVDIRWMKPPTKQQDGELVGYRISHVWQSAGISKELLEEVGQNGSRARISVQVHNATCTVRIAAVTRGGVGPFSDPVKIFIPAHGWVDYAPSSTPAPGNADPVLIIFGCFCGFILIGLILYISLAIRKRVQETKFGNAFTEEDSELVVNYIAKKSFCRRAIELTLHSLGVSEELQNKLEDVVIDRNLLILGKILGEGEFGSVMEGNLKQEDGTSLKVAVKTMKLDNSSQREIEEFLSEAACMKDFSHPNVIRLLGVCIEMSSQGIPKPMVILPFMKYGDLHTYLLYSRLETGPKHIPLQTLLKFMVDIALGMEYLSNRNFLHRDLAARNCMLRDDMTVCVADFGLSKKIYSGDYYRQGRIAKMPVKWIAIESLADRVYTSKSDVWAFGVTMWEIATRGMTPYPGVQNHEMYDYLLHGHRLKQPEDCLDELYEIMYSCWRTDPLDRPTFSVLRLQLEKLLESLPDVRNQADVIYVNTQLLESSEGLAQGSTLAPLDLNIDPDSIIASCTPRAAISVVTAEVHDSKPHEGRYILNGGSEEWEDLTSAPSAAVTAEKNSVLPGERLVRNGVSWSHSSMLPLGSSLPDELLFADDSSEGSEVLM
How it was run: as §1

[1] = ratio of Mer to FLT3: FLT3 IC50/Mer IC50

SMILES | IC50 (FLT3) [nM] | IC50 (MERTK) [nM] | FLT3/Mer ratio (FLT3 IC50/Mer IC50) (MERTK; [1]) | FLT3/Mer ratio (FLT3 IC50/Mer IC50) (MERTK; ratio calculated as FLT3 IC50/Mer IC50)
COC[C@H](C)Nc1ncc2c(-c3ccc(CN4CCOCC4)cc3)cc([C@H]3CC[C@@H](O)CC3)n2n1 [Compound 163, (cis)-4-(2-(((S)-1-methoxypropan-2-yl)amino)-5-(4-(morpholinomethyl)phenyl)pyrrolo[2,1-f][1,2,4]triazin-7-yl)cyclohexanol] | 100 to 1000 | ≤ 100 | ++ (“++” represents a ratio of between 10 and 100) | –
COCC(C)Nc1ncc2c(-c3ccc(C(C)N4CCCC4)cc3)cc(C3CCC(O)CC3)n2n1 (stereo not drawn) [Compound 164] | ≤ 100 | ≤ 100 | ++ (“++” represents a ratio of between 10 and 100) | –
COC[C@H](C)Nc1ncc2c(-c3ccc([C@H](C)N4CCCC4)cc3)cc([C@H]3CC[C@H](O)CC3)n2n1 [Compound 165] | ≤ 100 | ≤ 100 | ++ (“++” represents a ratio of between 10 and 100) | –
COCC(C)Nc1ncc2c(-c3ccc(C(C)N4CCCC4)cc3)cc(C3CCC(O)CC3)n2n1 (stereo not drawn) [Compound 166] | ≤ 100 | ≤ 100 | ++ (“++” represents a ratio of between 10 and 100) | –
COC[C@H](C)Nc1ncc2c(-c3cnn(CC(C)C)c3)cc([C@H]3CC[C@H](O)CC3)n2n1 [Compound 167] | 100 to 1000 | ≤ 100 | +++ (“+++” represents a ratio of >100) | –
COC[C@H](C)Nc1ncc2c(-c3cnccc3C)cc([C@H]3CC[C@H](O)CC3)n2n1 [Compound 168] | 1000 to 10000 | ≤ 100 | +++ (“+++” represents a ratio of >100) | –
COC[C@H](C)Nc1ncc2c(-c3ccc(C#N)c(F)c3)cc([C@H]3CC[C@H](O)CC3)n2n1 [Compound 169] | 1000 to 10000 | ≤ 100 | +++ (“+++” represents a ratio of >100) | –
COC[C@H](C)Nc1ncc2c(C3=CC4CCC(C3)N4)cc([C@H]3CC[C@H](O)CC3)n2n1 (stereo partly drawn) [Compound 170] | 1000 to 10000 | ≤ 100 | +++ (“+++” represents a ratio of >100) | –
COC[C@H](C)Nc1ncc2c(-c3ccc(C4(C(=O)N5CCOCC5)CC4)cc3)cc([C@H]3CC[C@H](O)CC3)n2n1 [Compound 171] | ≤ 100 | ≤ 100 | ++ (“++” represents a ratio of between 10 and 100) | –
COCC(C)Nc1ncc2c(-c3ccc(C4(C(=O)N5CCS(=O)(=O)CC5)CC4)cc3)cc(C3CCC(O)CC3)n2n1 (stereo not drawn) [Compound 172] | ≤ 100 | ≤ 100 | ++ (“++” represents a ratio of between 10 and 100) | –
COC[C@H](C)Nc1ncc2c(-c3ccc(C4(C(=O)O)CC4)cc3)cc([C@H]3CC[C@H](O)CC3)n2n1 [Compound 173] | 100 to 1000 | ≤ 100 | +++ (“+++” represents a ratio of >100) | –
COC[C@H](C)Nc1ncc2c(-c3cnn(CC(=O)NS(C)(=O)=O)c3)cc([C@H]3CC[C@H](O)CC3)n2n1 [Compound 174] | 1000 to 10000 | ≤ 100 | +++ (“+++” represents a ratio of >100) | –
COC[C@H](C)N(C)c1ncc2c(-c3ccnc(C)c3)cc([C@H]3CC[C@H](O)CC3)n2n1 [Compound 175, (trans)-4-(2-(((S)-1-methoxypropan-2-yl)(methyl)amino)-5-(2-methylpyridin-4-yl)pyrrolo[2,1-f][1,2,4]triazin-7-yl)cyclohexanol] | 1000 to 10000 | 100 to 1000 | ++ (“++” represents a ratio of between 10 and 100) | –
COC[C@H](C)N(C)c1ncc2c(-c3ccnc(C)c3)cc([C@H]3CC[C@H](OC)CC3)n2n1 [Compound 176, 7-((trans)-4-methoxycyclohexyl)-N-((S)-1-methoxypropan-2-yl)-N-methyl-5-(2-methylpyridin-4-yl)pyrrolo[2,1-f][1,2,4]triazin-2-amine] | 1000 to 10000 | 1000 to 10000 | + (“+” represents a ratio of >2.0 and <10) | –
COC[C@H](C)Nc1ncc2c(N3CCCC3=O)cc([C@H]3CC[C@H](O)CC3)n2n1 [Compound 177] | 1000 to 10000 | ≤ 100 | +++ (“+++” represents a ratio of >100) | –
COC[C@H](C)Nc1ncc2c(N3CC4(COC4)CC3=O)cc([C@H]3CC[C@H](O)CC3)n2n1 [Compound 178] | 1000 to 10000 | ≤ 100 | +++ (“+++” represents a ratio of >100) | –
COC[C@H](C)Nc1ncc2c(-c3cccc(CN4CCCC4)c3)cc([C@H]3CC[C@H](O)CC3)n2n1 [Compound 179] | 100 to 1000 | ≤ 100 | +++ (“+++” represents a ratio of >100) | –
COCC(C)Nc1ncc2c(-c3ccc(C(C)N4CCOCC4)cc3)cc(C3CCC(O)CC3)n2n1 (stereo not drawn) [Compound 181] | ≤ 100 | ≤ 100 | ++ (“++” represents a ratio of between 10 and 100) | –
COCC(C)Nc1ncc2c(-c3ccc(C(C)N4CCOCC4)cc3)cc(C3CCC(O)CC3)n2n1 (stereo not drawn) [Compound 182] | ≤ 100 | ≤ 100 | ++ (“++” represents a ratio of between 10 and 100) | –
COC[C@H](C)Nc1ncc2c(-c3ccnc(C)c3)cc([C@H]3CC[C@@H](O)CC3)n2n1 [Compound 183] | 1000 to 10000 | ≤ 100 | +++ (“+++” represents a ratio of >100) | –
COC[C@H](C)Nc1ncc2c(-c3ccc(C4(N5CCOCC5)CC4)cc3)cc([C@H]3CC[C@H](O)CC3)n2n1 [Compound 184] | 100 to 1000 | ≤ 100 | ++ (“++” represents a ratio of between 10 and 100) | –
COC[C@H](C)Nc1ncc2c(-c3cnn(Cc4nnc(C)s4)c3)cc([C@H]3CC[C@H](O)CC3)n2n1 [Compound 596] | 100 to 1000 | ≤ 100 | – | +++ (“+++” represents a ratio of >100)
